# Read-outs that look alike come from different tables or passages of the source.
# Legend:
# [1] = tested on: deoxymyoglobin (deoxy-Mb); assay: Light-induced CO release diffusing through a membrane into myoglobin solution; format: biochemical, horse; settings: for MbCO formation upon illumination: carbonyl solution exposed to cold light, gas diffusing through membrane
# Procedure: Therefore release of CO was induced by exposing these metal carbonyl complexes to a cold light source and allowing the gas to diffuse through a membrane before reacting with myoglobin as shown in FIG. 1.
# Five hundred microliters of iron pentacarbonyl ([Fe(CO)5], 99.9%) or 1 ml of dimanganese decacarbonyl ([Mn2(CO)10], 13 mM in DMSO) (see also chemical structure) were placed as carbonyl solution 2 in a plastic tube 1. A cell culture insert 3 (Costar) was sealed on top in order to create two separate chambers with a 0.6 cm air space between the solution 2 and an insert membrane 6 (Anapore™ 0.4 μm). 1.5 ml of deoxy-Mb solution (66 μM) was placed in the insert which was covered with Parafilm™ 5. The carbonyl solution was then exposed to cold light from a source 7 to stimulate CO release, allowing the gas to diffuse through the membrane 6 into the myoglobin solution 4. Aliquots of the myoglobin solution 4 were taken at different times and the conversion of deoxy-Mb to MbCO measured spectrophotometrically.
# [2] = tested on: deoxymyoglobin (deoxy-Mb); assay: Myoglobin assay: conversion of deoxy-Mb to MbCO on direct addition of metal carbonyl; format: biochemical, horse; settings: direct addition to myoglobin solution (66 μM), no light
# Procedure: The release of CO from metal carbonyl complexes was assessed spectrophotometrically by measuring the conversion of deoxymyoglobin (deoxy-Mb) to carbonmonoxy myoglobin (MbCO). MbCO has a distinctive absorption spectrum between 500 and 600 nm, and changes at 540 nm were used to quantify the amount of CO liberated. Myoglobin solutions (66 μM final concentration) were prepared freshly by dissolving the protein in 0.04 M phosphate buffer (pH 6.8). Sodium dithionite (0.1%) was added to convert myoglobin to deoxy-Mb prior to each reading. All the spectra were measured using a Helios a spectrophotometer.
# Various metal carbonyl complexes were tested for their ability to elicit MbCO formation when added directly to a deoxy-Mb solution. To different extents, [Ru(CO)3Cl2]2, [Ru(CO)2(DMSO)2Cl2], [Ru(CO)3Cl2(cytosine)] and […] all released CO when added directly to the Mb solution.
# The metal carbonyl complex was solubilized in DMSO (9.7 mM stock solution), aliquots of 2 to 32 μl were added directly to 1 ml of deoxy-Mb solutions (66 μM) and absorption spectrum determined immediately after mixing the samples by inversion.
# [3] = tested on: Rat vascular smooth muscle cells; assay: Cell viability of vascular smooth muscle cells (colorimetric assay); format: cell-based; settings: 0-100 μM, 24 h in complete medium
# Procedure: Rat vascular smooth muscle cells were obtained from the Coriell Cell Repository (Camden, N.J., USA) and grown in Dulbecco's […] (MEM) supplemented with 20% foetal calf serum, 2×MEM vitamins, 2×MEM non-essential and essential amino acids, penicillin (100 units/ml) and streptomycin (0.1 mg/ml). Confluent cells were treated with different concentrations of metal carbonyl (introduced as DMSO solution—see section B) for various times and cell viability was assessed using a colorimetric assay kit from Promega (Madison, Wis., USA) as previously described (47) after 3 or 24 h incubation, or after 3 h exposure to the agents followed by 21 h incubation in complete media. Results are expressed as the mean±s.e.m. of 6 independent experiments and differences were considered statistically significant at P<0.05 (*).
# [4] = tested on: isolated rat hearts; settings: L-NAME 25 μM perfusion
# Procedure: Langendorff heart preparations were performed using male Lewis rats (300-350 g) as previously described by our group (35). […] (pH 7.4). Coronary perfusion pressure (CPP), a parameter indicative of coronary vessel contractility, was continuously measured by a pressure transducer connected to the aortic cannula and data analyzed with an Acknowledge software (BIOPAC System Inc.).
# Hearts removed either from control rats (vehicle-treated) or from animals that were pre-treated with the heme oxygenase-1 inducer hemin (75 μmol/kg, i.p.) the day before, were initially equilibrated for 20 min on the Langendorff apparatus and then perfused with L-NAME (25 μM final concentration) to elicit vasoconstriction. The extent of CPP increase by L-NAME was also monitored over time in hemin-treated animals that received a heme oxygenase inhibitor (SnPPIX, 40 μmol/kg) 1 h prior to heart excision and in control hearts that were perfused with buffer supplemented with [Mn2(CO)10] (13 μM final concentration). Since [Mn2(CO)10] releases CO only by photodissociation, Krebs buffer containing [Mn2(CO)10] was exposed to a cold light source immediately before entering the aortic cannula.
# [5] = L-NAME-induced increase in mean arterial pressure in anaesthetised Lewis rats; format: in vivo, rat; settings: L-NAME 30 μmol/kg i.v.; [Ru(CO)3Cl2]2 60 μmol/kg i.v. 1 h before; hemin 75 μmol/kg i.p. 24 h before; SnPPIX 40 μmol/kg i.p.
# Procedure: Lewis rats (280-350 g) were anaesthetised by intramuscular injection of 1 ml/kg Hypnorm (fentanyl 0.315 mg/ml and fluanisone 10 mg/ml) followed 5 min later by an intraperitoneal injection of 5 mg/kg diazepam. Specially designed femoral artery and venous catheters were then surgically implanted as previously described (40). The arterial cannula was connected to a Grass pressure transducer and blood pressure monitored continuously using a polygraph recorder. Experiments were conducted on anaesthetized animals and recordings were made within 30 min of the surgical procedure.
# Control rats (vehicle-treated) and animals that were pre-treated with hemin (75 μmol/kg, i.p) 24 h prior to blood pressure monitoring were then administered with an intravenous injection of 30 μmol/Kg L-NAME to elicit an increase in mean arterial pressure. The extent of blood pressure increase by L-NAME was also monitored over time in hemin-treated animals that received SnPPIX (40 μmol/kg, i.p.) and in control rats previously injected with [Ru(CO)3Cl2]2 (60 μmol/kg, i.v.). In these two groups, SnPPIX or [Ru(CO)3Cl2]2 were administered to animals 1 h prior to L-NAME injection.
# [6] = tested on: HO-1; assay: Expression of heme oxygenase-1 in rat hearts (immunostaining, Northern blot); format: in vivo; settings: 24 h after hemin treatment, i.p.
# Procedure: For immunohistochemistry analysis, sections of heart muscles (5 μm thickness) were treated with 0.3% H2O2 in methanol to block endogenous peroxidase activity. Immunohistochemical staining was performed using rabbit polyclonal antibody against HO-1 (1:1000 dilution) as previously described (23). The presence of HO-1 was indicated by the development of a brown color. For Northern blot analysis, cardiac tissue was ground in a mortar under liquid nitrogen and suspended in guanidinium thiocyanate lysis buffer, Total RNA was then extracted using a modification of the method described by Chomczynski and Sacchi (49). RNA was run on a 1.3% denaturing agarose gel containing 2.2 M formaldehyde and transferred onto a nylon membrane overnight. The membrane was hybridized using [α-^32P]dCTP-labelled cDNA probes to rat HO-1 and GAPDH genes and bands analyzed using a densitometer as previously described (23, 50).
# Hearts were removed from Lewis rats 24 h after treatment with vehicle (control) or hemin ([…], i.p.) and immunostaining for HO-1 was assessed. For Northern blot analysis, rats were treated with hemin (75 μmol/kg, i.p.) and hearts removed at different time points to assess HO-1 mRNA levels (+ve, positive control).
Structure (SMILES),MbCO formation upon illumination [1],MbCO formation / CO release when added directly to deoxy-Mb solution [2],cytotoxicity on smooth muscle cells [3],"time to complete saturation of the myoglobin solution ([1]; 13 μmol/ml, continuous exposure to light)",effect on L-NAME-mediated vasoconstriction / rise in CPP ([4]; listed as (Mn2(CO)10)),effect on L-NAME-mediated vasoconstriction / rise in CPP ([4]; listed as [Mn2(CO10]),effect on L-NAME-induced increase in blood pressure [5],effect on L-NAME-mediated vasoconstriction / rise in CPP [4],HO-1 protein and mRNA expression in hearts [6]
"[C-]#[O+].[C-]#[O+].[C-]#[O+].[C-]#[O+].[C-]#[O+].[Fe] [[Fe(CO)5], iron pentacarbonyl]",gradual increase in MbCO formation observed over time,did not result in any appreciable formation of carbonmonoxy myoglobin,–,–,–,–,–,–,–
"[C-]#[O+].[C-]#[O+].[C-]#[O+].[C-]#[O+].[C-]#[O+].[C-]#[O+].[C-]#[O+].[C-]#[O+].[C-]#[O+].[C-]#[O+].[Mn].[Mn] [[Mn2(CO)10], dimanganese decacarbonyl]",gradual increase in MbCO formation observed over time,did not result in any appreciable formation of carbonmonoxy myoglobin,no major cytotoxicity,approximately 40 min,unaffected,significantly delayed vasoconstriction and maintained CPP at much lower levels at the end of perfusion,–,–,–
"C=CC1=C(C)c2cc3[n-]c(cc4[n-]c(cc5nc(cc1n2)C(C)=C5C=C)c(C)c4CCC(=O)O)c(CCC(=O)O)c3C.[Cl-].[Fe+3] [hemin, ferriprotoporphyrin IX chloride]",–,–,–,–,–,–,significant suppression,markedly attenuated,highly expressed

# — patent US8236339B2, “Therapeutic delivery of carbon monoxide” (priority 2001, dated 2012)
